Measured values as given in patent US20190231768A1, “P[…] TREATING DRUG INDUCED DYSKINESIAS” (PRILENIA THERAPEUTICS DEVELOPMENT LTD., priority 2017, published 2019).
Like-named read-outs stand apart in the source and are kept apart here.

What was measured:
[1] = molecular target: dopamine-2 receptor (D2R) (Homo sapiens, UniProt P14416); conditions: 90 mg
Excerpt: (§1) The study consisted of a screening period of up to 8 weeks prior to first dosing of tracer, including a Ti three-dimensional magnetization-prepared rapid acquisition gradient echo (MPRAGE 3D) magnetic resonance imaging (MRI) scan (visit 1), a study period of up to 4 weeks (including visits 2 and 3), and a follow-up visit (visit 4). […] Each dose cohort comprised up to 4 subjects. Although every subject of each dose cohort was expected to receive the same dose, it was also possible to change the dose level within a cohort due to the adaptive design of the study.

sigma-1 receptor (S1R) = sigma-1 receptor (S1R) (Homo sapiens, UniProt Q99720)
Excerpt: as §1

[2] = test system: MPTP-lesioned macaques with L-DOPA-induced dyskinesia
Protocol: The study was conducted in two separate experiments. […] Animals: Eight cynomolgus monkeys (Macaca fascicularis, 8-14 years of age, 3.0-4.8 kg, Suzhou Xishan-Zhongke Laboratory Animal Company, PRC) were used in this study. Fresh fruit, primate pellets and water were available ad libitum other than at times of overnight fasting (from 5 pm) prior to days of behavioral assessment. The housing rooms were subject to a 12-hour light-dark cycle (lights on 7 a.m.), 20-25° C. in a room containing only animals of the same sex.
MPTP administration and development of motor complications: Animals received once-daily subcutaneous injection of MPTP (0.2 mg/kg in 0.9% sterile-saline, Sigma-Aldrich, Oakville, ON, Canada) for 8-30 days. A parkinsonian syndrome was then allowed to develop over at least a 90-day period, during which time additional MPTP administrations were given as necessary, until animals reached moderate to marked levels of disability. […] MPTP lesions were allowed to stabilize for a minimum of a further 60-day prior to commencing induction of L-DOPA-induced motor complications. LID, including both choreiform and dystonic dyskinesia, were evoked by chronic L-DOPA treatment (25 mg/kg, Madopar™, Roche, L-DOPA: benserazide, ratio 4:1) for at least 4-months. During this same period animals were acclimatized to the experimental setting, trained to provide blood samples (while restrained in chair) and to receive administration of treatment by oral, intravenous or subcutaneous routes.
The response to this dose of L-DOPA was assessed to ensure stability and reproducibility within each animal on successive L-DOPA administrations.
For both studies, on the day before behavioral observations, food was removed overnight, from 5 p.m. On days of behavioral assessment, treatments were administered to the animals in their home cages. Animals were then transferred to an observation cage for behavioral assessment. […] The effects of treatments on parkinsonian disability, dyskinesia, duration and quality of anti-parkinsonian benefit (on-time) and activity were assessed and analyzed for a period of 6 hours (h).
Assessment of parkinsonian disability, dyskinesia (chorea and dystonia) and activity: Animals were transferred to individual observation cages (1.5×1.0×1.1 m) and their behavior recorded on HD-video. Rating scales for parkinsonism and dyskinesia adapted from their clinical counterparts (UPDRS pt. III and UDysRS respectively) were used to assess recordings via post-hoc analysis by a movement disorders neurologist blinded to treatment. […] Dyskinesia, representative of the maximum of either chorea or dystonia was scored as 0—absent, 1—mild, 2—moderate, 3—marked or 4—severe. Parkinsonian disability and dyskinesia were assessed for 5-min every 10-min, the score given being most representative of each 5-min observation period. Scores were summed for each hour for time-course analyses and across the entire observation period (0-6 h).
The duration of anti-parkinsonian action, on-time, was defined as the number of minutes for which the bradykinesia score was zero. In addition, the duration of on-time associated with dyskinesia of varying severity was calculated as follows. On-time with disabling dyskinesia, ‘bad’-on-time was calculated the number of minutes for which the bradykinesia score was zero while the dyskinesia score was greater than 2. Meanwhile, on-time without disabling dyskinesia, ‘good’-on-time represents the number of minutes for which the bradykinesia score is zero while the dyskinesia score is 2 or less.
Statistical analyses: Data derived from assessment of duration and quality of on-time were plotted as mean±s.e.m. […] Data for measures of parkinsonian disability and dyskinesia were graphed, where appropriate, as median scores alone (time course) or box and whisker plots (cumulated totals). Time course data for parkinsonian disability and dyskinesia were first ranked within each animal across all treatments using Excel's RANKAVG function. […]

σ1R [3] = molecular target: σ1R (Homo sapiens, UniProt Q99720); conditions: human 67.5 mg bid; based on human PET data and PK profile
D2R [4] = molecular target: T1, D2R (Homo sapiens, UniProt P14416); conditions: human 67.5 mg bid; based on human PET data and PK profile
[5] = test system: human subject afflicted with LID; conditions: 45, 90, 135 or 180 mg/day oral, add-on to amantadine
D2R [6] = molecular target: T1, D2R; experiment: in vivo; conditions: read-out: % D2R occupancy
σ1R [7] = molecular target: σ1R (Rattus norvegicus, UniProt Q9R0C9); conditions: 3 mg/kg PO; cited from earlier work
6-OHDA-lesioned rat = conditions: 25 μmole/kg (8 mg/kg); cited from earlier work
[8] = test system: patients with Huntington's Disease (HD); conditions: 45 mg twice daily (90 mg/day); cited from earlier work
HD patients = conditions: cited from earlier work; for TMS change from baseline vs placebo: HD stage 1 (baseline TFC≥11), post hoc
[9] = study 2, 30 mg/kg, cumulated 0-2 h

T1 sequence (P14416 whole entry): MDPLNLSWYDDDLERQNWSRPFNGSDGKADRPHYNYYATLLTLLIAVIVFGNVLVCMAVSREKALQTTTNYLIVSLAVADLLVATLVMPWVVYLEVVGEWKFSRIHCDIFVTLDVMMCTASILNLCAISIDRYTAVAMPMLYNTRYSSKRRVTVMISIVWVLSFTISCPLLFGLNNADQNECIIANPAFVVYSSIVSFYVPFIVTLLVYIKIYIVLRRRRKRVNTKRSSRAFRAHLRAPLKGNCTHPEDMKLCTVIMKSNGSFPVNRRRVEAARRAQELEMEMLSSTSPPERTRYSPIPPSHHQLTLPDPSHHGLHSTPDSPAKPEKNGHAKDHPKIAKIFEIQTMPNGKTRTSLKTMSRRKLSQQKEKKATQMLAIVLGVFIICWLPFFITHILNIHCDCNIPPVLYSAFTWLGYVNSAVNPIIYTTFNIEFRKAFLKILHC
sigma-1 receptor (S1R), sequence (Q99720 whole entry): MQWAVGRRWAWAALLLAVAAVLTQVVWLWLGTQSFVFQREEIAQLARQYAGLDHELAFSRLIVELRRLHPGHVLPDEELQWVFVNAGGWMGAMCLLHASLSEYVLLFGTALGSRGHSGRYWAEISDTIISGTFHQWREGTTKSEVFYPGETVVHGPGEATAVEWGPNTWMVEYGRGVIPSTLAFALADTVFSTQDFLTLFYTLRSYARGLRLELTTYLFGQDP
dopamine-2 receptor (D2R), sequence (P14416 whole entry): as the sequence (P14416 whole entry) above
σ1R (Rattus norvegicus, UniProt Q9R0C9), sequence (Q9R0C9 whole entry): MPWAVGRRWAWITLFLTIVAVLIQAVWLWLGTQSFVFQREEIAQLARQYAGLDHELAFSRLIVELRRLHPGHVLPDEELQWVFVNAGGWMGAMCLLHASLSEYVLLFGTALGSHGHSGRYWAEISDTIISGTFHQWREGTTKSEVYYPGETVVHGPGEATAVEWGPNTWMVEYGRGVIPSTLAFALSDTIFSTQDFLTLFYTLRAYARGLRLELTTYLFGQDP
σ1R (Homo sapiens, UniProt Q99720), sequence (Q99720 whole entry): as the sequence (Q99720 whole entry) above

## CCCN1CCC(c2cccc(S(C)(=O)=O)c2)CC1 [pridopidine, 4-(3-(methylsulfonyl)phenyl)-1-propylpiperidine]
[1]
  D2R blockage: 3%
sigma-1 receptor (S1R); 90 mg
  difference in drug-induced S1R occupancy between HV and HD patients: no differences
sigma-1 receptor (S1R); healthy volunteers, single oral dose 45 mg, 2 h after dosing
  S1R occupancy: ~100%
sigma-1 receptor (S1R); healthy volunteers, single oral dose 90 mg, 2 h after dosing
  S1R occupancy: ~100%
sigma-1 receptor (S1R); single oral dose 1 mg
  S1R occupancy: approximately 40%
[2]; 20 mg/kg + LDh, hr 1
  Dyskinesia (time course), significance cf. LDh-vehicle: * (*/**/*** represents P < 0.05, P < 0.01 or P < 0.001 cf. vehicle-treatment)
  L-DOPA induced Dystonia (time course), significance cf. LDh-vehicle: * (*/**/*** represents P < 0.05, P < 0.01 or P < 0.001 cf. vehicle-treatment)
[2]; 30 mg/kg + LDh, hr 1
  Dyskinesia (time course), significance cf. LDh-vehicle: ** (*/**/*** represents P < 0.05, P < 0.01 or P < 0.001 cf. vehicle-treatment)
  L-DOPA induced Dystonia (time course), significance cf. LDh-vehicle: ** (*/**/*** represents P < 0.05, P < 0.01 or P < 0.001 cf. vehicle-treatment)
[2]; 30 mg/kg + LDh, hr 2
  Dyskinesia (time course), significance cf. LDh-vehicle: *** (*/**/*** represents P < 0.05, P < 0.01 or P < 0.001 cf. vehicle-treatment)
  L-DOPA induced Dystonia (time course), significance cf. LDh-vehicle: *** (*/**/*** represents P < 0.05, P < 0.01 or P < 0.001 cf. vehicle-treatment)
[2]; 30 mg/kg + LDh, hr 3
  L-DOPA induced Dystonia (time course), significance cf. LDh-vehicle: * (*/**/*** represents P < 0.05, P < 0.01 or P < 0.001 cf. vehicle-treatment)
[2]; MPTP-lesioned NHPs, high-dose
  LID: significant and meaningful decrease
[2]; PD NHP model, low doses
  LID: ineffective
[2]; study 1
  total duration of on-time or extent of anti-parkinsonian benefit of L-DOPA: absence of any change
[2]; study 1, 7 mg/kg, first two hours of observation
  anti-parkinsonian benefit afforded by L-DOPA: modest decrease
[2]; study 2, 0-6 h
  total duration of on-time: no change
[2]; study 2, 20 mg/kg, first hour
  median level of dyskinesia: between moderate and marked
  median level of dystonia: between moderate and marked
[2]; study 2, 30 mg/kg
  'bad' quality on-time: 66 min
  decrease in 'bad' quality on-time compared to vehicle: 60%
[2]; [9]
  median level of dyskinesia: below mild (non-disabling)
  median level of dystonia: below mild (non-disabling)
  reduction of median levels of dyskinesia compared to LDh-vehicle: 71%
  reduction of median levels of dystonia compared to LDh-vehicle: 72%
[2]; study 2, 30 mg/kg, first and second hours
  median level of dyskinesia: mild to moderate
[2]; study 2, 30 mg/kg, first to third hours
  median level of dystonia: mild to moderate
[2]; study 2, any dose
  proportion of on-time of 'good' quality cf. LDh-vehicle: no difference
σ1R [3]
  S1R occupancy (estimated): fully occupy the S1Rs
D2R [4]
  occupancy of the dopamine receptors (DARs) (estimated): minimal occupancy
[5]
  symptoms of dyskinesia: effective (provides at least an additive effect or more than an additive effect)
D2R [6]
  receptor occupancy at 45 mg: ~3%
  receptor occupancy at 90 mg: ~30%
  receptor occupancy at 150 mg: > 40%
σ1R [7]
  % σ1R occupancy: 60%
6-OHDA-lesioned rat
  L-DOPA-induced sensitization of contraversive-rotation: decreased
  anti-parkinsonian benefit of L-DOPA: no decrease
[8]
  motor function, UHDRS Total Motor Score (TMS): significantly improved motor function
HD patients; 45 mg bid, 52 weeks, nominal p=0.003
  difference in TFC score decline vs placebo: 0.87 (95% confidence interval: 0.29-1.45)
HD patients; 45 mg bid, weeks 26 or 52
  TMS change from baseline vs placebo: trend towards improvement
HD patients; 112.5 mg bid, 52 weeks
  TMS change from baseline vs placebo: no improvement
HD patients; high dose (>90 mg bid)
  TFC decline: failed to show improvement
HD patients; high doses (≥67.5 bid)
  TMS efficacy compared to placebo or the 45 mg bid dose: none of the high doses of pridopidine (≥67.5 bid) showed improved efficacy
